# Results taken from patent publication US12221432B2, “Estrogen receptor antagonist” (CHIA TAI TIANQING PHARMACEUTICAL GROUP CO., LTD., priority 2018, dated 2025).
# Where a name gives a salt, the structure may show the parent alone.
# What was measured:
# CYP2C9 = target: T1, CYP2C9 (Homo sapiens, UniProt P11712); assay: Cytochrome P450 isoenzyme inhibition, CYP2C9; type: in vitro ADME; conditions: human liver microsomes; read-out: CYP enzyme inhibition (IC50) 2C9
# T1 construct: tissue Corning Co., Ltd; host or cells: human liver microsomes
# Description: (§1) Experimental objective: To determine the inhibitory effect of the test compound on the activity of human liver microsomal cytochrome P450 isoenzymes (CYP1A2, CYP2C9, CYP2C19, CYP2D6 and CYP3A4; Corning Co., Ltd.). […]
# [1] = Pharmacokinetics study in rats (cassette); type: in vivo; conditions: female, SD, plasma, rat cassette PK
# Description: Experimental objective: To determine the drug concentration in the plasma of the rats at different times after intravenous and oral administration of the test compounds by LC/MS/MS using female SD rats as the test animals. To investigate the pharmacokinetic performance of the test compounds in rats and to evaluate the pharmacokinetic characteristics.
# Test animals: 4 healthy female SD rats were divided into 2 groups according to according to the principle of similar weight, 2 in the IV group and 2 in the PO group. Animal used in this study were purchased from Beijing Vital River Laboratory Animal Technology Co., Ltd.
# IV group: Appropriate amounts of compounds were weighed respectively, prepared into 2 mg/mL solutions, then mixed to give a 0.5 mg/mL solution, which was stirred and ultrasonicated until a clear state. The vehicle was 15% HP-b-CD.
# PO group: An appropriate amount of the IV group solution was taken and diluted to 0.4 mg/mL with 15% HP-b-CD.
# Administration: After fasting overnight, the IV group was administered intravenously, and the dose of the test compound was 1 mg/kg; the PO group was administered intragastrically, and the dose of the test compound was 2 mg/kg.
# Procedures: For IV group, 200 μL of blood was collected from the jugular vein of the female SD rats at 0.0833, 0.25, 0.5, 1, 2, 4, 8, and 24 hours post-dose, and placed in a commercial anticoagulant tube with EDTA-K2 added in advance. For PO group, 200 μL of blood was collected from the jugular vein of the female SD rats at 0.25, 0.5, 1, 2, 4, 8, 12 and 24 hours post-dose, and placed in a commercial anticoagulant tube with EDTA-K2 added in advance. The blood samples were centrifuged (3,200 g, 4° C., 10 minutes) to give plasma samples, which was transferred to a pre-cooled centrifuge tube, frozen in dry ice, and stored in an ultra-low temperature freezer at −60° C. or lower until the LC-MS/MS analysis. The animals were given free access to food 4 hours after the administration. LC/MS/MS method was used to determine the content of the test compounds in the plasma of […] after intravenous and oral administration. The linear range of the method is 2.00-2000 nM.
# P-gp (human MDR1) = assay: MDR1-MDCK two-way permeability assay; type: in vitro ADME, canine; conditions: dog
# Description: In this study, the MDR1-MDCKII cell line authorized by the Piet Borst Laboratory of the Netherlands Cancer Institute was used as the in vitro model. It is a Madin-Darby canine kidney cell transfected with human multiple drug resistance gene (MDR1). The cells can stably express the efflux transporter P-gp, so it is suitable for screening P-gp substrates or inhibitors and predicting the permeability of the compounds through barriers with high efflux effects in the duodenum, blood-brain barrier, […] and kidney units, etc. This study was intended to use MDR1-MDCK II cells for investigating the two-way permeability of the test compounds through the MDR1-MDCK II cell model.
# Procedures: The standard conditions are as follows: • Test concentration: 2 μM (DMSO≤1%); • Replicate: n=2; • Direction: Two-way transport, including two directions: A→B and B→A; • Incubation time: single time point, 2.5 hours; • Transport buffer: HBSS buffer containing 10 mM Hepes, pH 7.4; Incubation condition: 37° C., 5% CO2.
# After the incubation, sample solutions at the dosing end and the receiving end were collected and mixed with the cold acetonitrile solution containing the internal standard immediately. LC/MS/MS method was used to analyze the concentration of the test compounds in all samples (including the initial dosing solution, the dosing end samples and the receiving end samples). The apparent permeability coefficient, efflux ratio and other parameters were calculated.
# CYP2D6 = target: T2, CYP2D6 (Homo sapiens, UniProt P10635); assay: Cytochrome P450 isoenzyme inhibition, CYP2D6; type: in vitro ADME; conditions: human liver microsomes; read-out: CYP enzyme inhibition (IC50) 2D6
# T2 construct: tissue Corning Co., Ltd; host or cells: human liver microsomes
# Description: as §1
# T1 sequence (P11712 whole entry): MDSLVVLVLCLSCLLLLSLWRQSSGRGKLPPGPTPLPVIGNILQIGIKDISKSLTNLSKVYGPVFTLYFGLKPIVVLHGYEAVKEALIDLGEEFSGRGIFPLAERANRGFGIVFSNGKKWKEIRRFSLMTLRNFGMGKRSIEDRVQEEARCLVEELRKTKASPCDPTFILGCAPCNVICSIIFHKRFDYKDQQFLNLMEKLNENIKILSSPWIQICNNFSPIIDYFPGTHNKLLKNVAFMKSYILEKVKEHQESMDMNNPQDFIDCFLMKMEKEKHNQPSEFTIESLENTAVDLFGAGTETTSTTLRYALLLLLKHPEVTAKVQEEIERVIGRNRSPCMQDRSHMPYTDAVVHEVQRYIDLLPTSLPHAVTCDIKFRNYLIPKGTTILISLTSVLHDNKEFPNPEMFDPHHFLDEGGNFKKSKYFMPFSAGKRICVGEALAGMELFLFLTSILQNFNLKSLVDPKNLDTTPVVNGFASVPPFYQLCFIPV
# T2 sequence (P10635 whole entry): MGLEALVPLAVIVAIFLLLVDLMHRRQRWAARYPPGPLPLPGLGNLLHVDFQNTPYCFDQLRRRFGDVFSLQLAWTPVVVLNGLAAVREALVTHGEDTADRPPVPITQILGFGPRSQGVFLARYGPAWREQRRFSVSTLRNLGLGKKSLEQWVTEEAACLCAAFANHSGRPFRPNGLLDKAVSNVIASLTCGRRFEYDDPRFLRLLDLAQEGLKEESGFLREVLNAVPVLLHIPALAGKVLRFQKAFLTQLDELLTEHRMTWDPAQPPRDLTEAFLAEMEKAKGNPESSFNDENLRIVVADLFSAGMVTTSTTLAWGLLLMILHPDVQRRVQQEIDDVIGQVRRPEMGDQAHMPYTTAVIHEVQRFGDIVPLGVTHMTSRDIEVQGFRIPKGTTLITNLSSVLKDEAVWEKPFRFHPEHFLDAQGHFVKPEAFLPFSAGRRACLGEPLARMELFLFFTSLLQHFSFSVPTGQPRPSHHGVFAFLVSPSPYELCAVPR
smiles,measurement,setting,value
CC/C(=C(/c1ccc(OCCNC/C=C/C(=O)N(C)C)nc1)c1[nH]c2ccccc2c1Cl)c1ccccc1 [Compound 3 monohydrochloride],IC50,CYP2C9,8.4 µM
same,AUC(0-t),"[1]; iv, i.v. 1 mg/kg",3.55 µM·h
same,clearance,"[1]; iv, i.v. 1 mg/kg",8.14 mL/min/kg
same,half-life,"[1]; iv, i.v. 1 mg/kg",6.65 h
same,Vd,"[1]; iv, i.v. 1 mg/kg, read-out: Vdss",4.46 L/kg
same,AUC(0-t),"[1]; po, p.o. 2 mg/kg",5.21 µM·h
same,Cmax,"[1]; po, p.o. 2 mg/kg",464 nM
same,Tmax,"[1]; po, p.o. 2 mg/kg",2 h
same,bioavailability,"[1]; po, p.o. 2 mg/kg",73.3%
same,"Papp A→B at 2.5 h, 2 μM","P-gp (human MDR1); MDCK-MDR1, A-B, pH 7.4",0.44 ×10⁻⁶ cm/s
same,"Papp B→A at 2.5 h, 2 μM","P-gp (human MDR1); MDCK-MDR1, B-A, pH 7.4",1.93 ×10⁻⁶ cm/s
same,"efflux ratio at 2.5 h, 2 μM","P-gp (human MDR1); MDCK-MDR1, pH 7.4, B-A/A-B",4.39
same,IC50,CYP2D6,25.6 µM
